Where two headings read alike, the source gives them in different places. Where no end group is shown, it is not given here.
Columns and labels:
[1] = test system: HeLa cell line; assay: HeLa MTS cellular reduction toxicity assay; format: cell-based; details: for TX50: 24 h, MTS
Outline: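 TX50, the concentration giving 50% toxicity, obtained by sigmoidal fitting of relative toxicity versus peptide-free cells. Readout: MTS reduction with PMS, 1 h, A490. Peptides applied in 2-fold serial dilutions to 48 h HeLa monolayers for 24 h at 37 °C.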

[2] = test system: Cr. Neoformans 32045; format: cell-based
Outline: (§1)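 Broth microdilution per NCCLS, adapted for fungi with Sabouraud Dextrose Broth; KFAK-repeat peptide multimers in two-fold dilutions from 1,000 to 1 μg/ml. Growth by OD620 after overnight incubation; IC50 by sigmoidal fit, in duplicate, repeated at least twice.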

[3] = test system: C. albicans 10231; format: cell-based; details: 10231
Outline: as §1

[4] = test system: Red blood cells (RBC); assay: Red blood cell toxicity; format: cell-based
[5] = Red blood cell toxicity; format: cell-based; details: red blood cells (RBC)
[6] = test system: S. aureus (methicillin resistant) ATCC 33591; details: ATCC 33591
[7] = test system: E. coli ATCC 2592; details: ATCC 2592
[8] = test system: P. aeruginosa ATCC 10145; details: ATCC 10145
[9] = test system: Staph. aureus ATCC 6538; assay: HMARQ biocidal kill activity; format: cell-based; details: Staph. aureus ATCC 6538 (gram+)
Outline: (§2)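 Values are biocide ppm (μg/mL) needed for 3.5 log reduction relative to untreated controls after 15 min or 24 h exposure. Organisms were added to biocide-containing sample matrix (200–300 μL, mixed by vortex), then enumerated by most-probable-number 1:10 dilution series in TSB/resazurin.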

[10] = test system: P. aeruginosa ATCC 15442; assay: HMARQ biocidal kill activity; format: cell-based; details: P. aeruginosa ATCC 15442 (gram−)
Outline: as §2

[11] = RBCs, concentration required for 50% toxicity, read-out: TX50

Substance	% kill at 500 μg/ml [1] [%]	TX50 [1] [µg/mL]	IC50 [2] [µg/mL]	MIC [2] [µg/mL]	IC50 [3] [µg/mL]	MIC [3] [µg/mL]	% kill at 250 μg/ml [4] [%]	HC50 at 24 h [5, 11] [µg/mL]	IC50 [6] [µg/mL]	MIC [6] [µg/mL]	IC50 [7] [µg/mL]	MIC [7] [µg/mL]	IC50 [8] [µg/mL]	MIC [8] [µg/mL]	ppm needed for 3.5 log kill at 15 min [9] [ppm]	ppm needed for 3.5 log kill at 24 hr [9] [ppm]	ppm needed for 3.5 log kill at 24 hr [10] [ppm]	HC50 at 24 h [5] [µg/mL]	ppm needed for 3.5 log kill at 15 min [10] [ppm]
LRLRLRLRLRLRLRLRLRLRLR [LR (11), LR LR LR LR LR LR LR LR LR LR LR]	66.6	>500	3.3	62 to 125	>500	>500	41	450	39	125 to 250	96	125 to 250	>250	>250	16	8	8	–	–
H-KFAKKFAKKFAKKFAKKFAKKFAKKFAKKFAK-OH [KFAK (8), KFAK KFAK KFAK KFAK KFAK KFAK KFAK KFAK]	18.2	249	4.1	8 to 16	105	125 to 250	48	–	40	125 to 250	12	16 to 32	19	20	>500	8	31	> 500	31
H-KKFAKKFAKKFAKKFAKKFAKKFA-OH [KKFA (6), KKFA KKFA KKFA KKFA KKFA KKFA]	76.4	>500	12	32 to 62	107	125 to 250	2	–	136	>250	7	16 to 32	33	62	>500	63	8	> 500	>500
KFKKFKKFKKFKKFKKFKKFK [KFK (7), KFK KFK KFK KFK KFK KFK KFK]	80.9	>500	26	40 to 62	175	250 to 500	−7	> 500	141	>500	18	31 to 62	87	125	>500	–	125	–	>500
AKKFAKKFAKKFAKKFAKKFAKKF [AKKF (6), AKKF AKKF AKKF AKKF AKKF AKKF]	7.3	33	11	16 to 32	225	250 to 500	100	–	41	125 to 250	8	16 to 32	21	25	>500	125	16	39	>500
H-FKAFKAFKAFKAFKAFKAFKAFKA-OH [FKA (8), FKA FKA FKA FKA FKA FKA FKA FKA]	60.4	>500	3.9	16 to 32	199	250 to 500	10	> 500	74	>500	7	16 to 32	19	25	8	125	16	–	125
LKKLLKKLLKKLLKKLLKKLLKKL [LKKL (6), LKKL LKKL LKKL LKKL LKKL LKKL]	−1.3	26	93	>125	213	250 to 500	100	11	98	>250	31	62 to 125	58	65	4	125	8	–	>500
H-KKAKKKAKKKAKKKAKKKAKKKAKKKAK-OH [KKAK (7), KKAK KKAK KKAK KKAK KKAK KKAK KKAK]	>87.9	>500	28	>63	>500	>500	−6	> 500	60	–	26	31 to 62	99	125	>500	125	16	–	16
FKAFKAFKAFKAFKAFKAFKA [FKA (7), FKA FKA FKA FKA FKA FKA FKA]	103.3	>500	3.2	4 to 8	203	250 to 500	11	> 500	>500	>500	7	16 to 32	23	32	500	500	63	–	125
